Like-named read-outs stand apart in the source and are kept apart here.
What was measured:
ALK = molecular target: T1, ALK (Homo sapiens, UniProt Q9UM73); assay: ALK Kinase Assay (ELISA/TRF, PLC-γ substrate); type: biochemical; conditions: read-out: ALK Potency
T1 construct: host or cells: baculovirus expression system
In short: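 First, plates are coated with substrate (phospholipase C-γ, 10 μg/mL, TBS). Next, 30 ng/ml ALK initiates phosphorylation for 15 min at 37° C. Then Eu-N1 PT66 antibody is added for detection, and a nonlinear dose-response fit of percent inhibition yields IC50.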

JAK2 = molecular target: T2, JAK2 (Homo sapiens, UniProt O60674); assay: Recombinant Human JAK2 Kinase Assay (TRF); type: biochemical; conditions: read-out: JAK2 Potency
T2 construct: host or cells: baculovirus expression system
In short: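 TRF read-out: Eu-N1 PY100 anti-phosphotyrosine antibody detects product. Enzyme is baculovirus-expressed JAK2 at 15 ng/ml; substrate is a biotinyl 15-mer peptide bound to Neutravidin-coated wells. Buffer 20 mM HEPES pH 7.2, 0.2 μM ATP, 1 mM MnCl2, 0.1% BSA, 2.5% DMSO final; 20 min, RT.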

[1] = ALK kinase inhibition, 1 μM ATP
[2] = JAK2 kinase inhibition, 0.2 μM ATP

T1 sequence (Q9UM73 19-1620): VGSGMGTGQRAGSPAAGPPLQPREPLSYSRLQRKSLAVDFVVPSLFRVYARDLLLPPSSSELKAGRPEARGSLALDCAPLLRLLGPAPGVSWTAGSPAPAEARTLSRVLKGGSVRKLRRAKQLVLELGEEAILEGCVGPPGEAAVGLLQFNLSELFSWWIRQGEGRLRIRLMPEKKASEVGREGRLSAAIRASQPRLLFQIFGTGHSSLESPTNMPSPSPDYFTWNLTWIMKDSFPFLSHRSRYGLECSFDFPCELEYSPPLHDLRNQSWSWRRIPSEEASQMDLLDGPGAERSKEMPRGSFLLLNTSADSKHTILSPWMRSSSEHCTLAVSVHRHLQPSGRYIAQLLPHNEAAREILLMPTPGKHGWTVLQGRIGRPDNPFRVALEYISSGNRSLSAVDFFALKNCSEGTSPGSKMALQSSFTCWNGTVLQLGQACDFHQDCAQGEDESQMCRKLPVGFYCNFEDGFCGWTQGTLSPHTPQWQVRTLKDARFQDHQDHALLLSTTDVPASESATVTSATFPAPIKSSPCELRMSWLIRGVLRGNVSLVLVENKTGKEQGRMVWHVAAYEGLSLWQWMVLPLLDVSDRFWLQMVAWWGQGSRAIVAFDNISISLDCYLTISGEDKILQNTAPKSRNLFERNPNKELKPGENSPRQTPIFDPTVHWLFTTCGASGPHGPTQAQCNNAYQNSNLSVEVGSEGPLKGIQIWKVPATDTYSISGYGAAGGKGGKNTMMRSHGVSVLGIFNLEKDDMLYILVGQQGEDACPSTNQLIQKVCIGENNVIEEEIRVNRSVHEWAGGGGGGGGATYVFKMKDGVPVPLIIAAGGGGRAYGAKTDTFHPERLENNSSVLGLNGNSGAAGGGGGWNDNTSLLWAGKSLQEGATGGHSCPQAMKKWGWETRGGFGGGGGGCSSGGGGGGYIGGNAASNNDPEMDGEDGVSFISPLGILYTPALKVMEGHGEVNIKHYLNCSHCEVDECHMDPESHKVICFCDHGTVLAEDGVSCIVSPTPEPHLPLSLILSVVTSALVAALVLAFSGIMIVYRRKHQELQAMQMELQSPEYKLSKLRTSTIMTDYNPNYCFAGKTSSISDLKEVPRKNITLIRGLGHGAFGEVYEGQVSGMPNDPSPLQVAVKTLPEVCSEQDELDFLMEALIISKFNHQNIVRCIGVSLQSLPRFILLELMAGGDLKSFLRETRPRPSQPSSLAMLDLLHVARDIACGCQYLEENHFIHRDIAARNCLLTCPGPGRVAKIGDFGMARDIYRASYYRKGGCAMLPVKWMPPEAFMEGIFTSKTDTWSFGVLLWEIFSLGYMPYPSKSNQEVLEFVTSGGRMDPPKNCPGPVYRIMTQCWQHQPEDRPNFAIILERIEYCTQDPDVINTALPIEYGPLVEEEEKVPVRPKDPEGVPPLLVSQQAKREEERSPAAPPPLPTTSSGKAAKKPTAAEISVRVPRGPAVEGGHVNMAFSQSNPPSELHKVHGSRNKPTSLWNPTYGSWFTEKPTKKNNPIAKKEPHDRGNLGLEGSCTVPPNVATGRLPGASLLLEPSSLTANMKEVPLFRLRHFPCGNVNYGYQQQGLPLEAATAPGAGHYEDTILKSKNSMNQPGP
T2 sequence (O60674 whole entry): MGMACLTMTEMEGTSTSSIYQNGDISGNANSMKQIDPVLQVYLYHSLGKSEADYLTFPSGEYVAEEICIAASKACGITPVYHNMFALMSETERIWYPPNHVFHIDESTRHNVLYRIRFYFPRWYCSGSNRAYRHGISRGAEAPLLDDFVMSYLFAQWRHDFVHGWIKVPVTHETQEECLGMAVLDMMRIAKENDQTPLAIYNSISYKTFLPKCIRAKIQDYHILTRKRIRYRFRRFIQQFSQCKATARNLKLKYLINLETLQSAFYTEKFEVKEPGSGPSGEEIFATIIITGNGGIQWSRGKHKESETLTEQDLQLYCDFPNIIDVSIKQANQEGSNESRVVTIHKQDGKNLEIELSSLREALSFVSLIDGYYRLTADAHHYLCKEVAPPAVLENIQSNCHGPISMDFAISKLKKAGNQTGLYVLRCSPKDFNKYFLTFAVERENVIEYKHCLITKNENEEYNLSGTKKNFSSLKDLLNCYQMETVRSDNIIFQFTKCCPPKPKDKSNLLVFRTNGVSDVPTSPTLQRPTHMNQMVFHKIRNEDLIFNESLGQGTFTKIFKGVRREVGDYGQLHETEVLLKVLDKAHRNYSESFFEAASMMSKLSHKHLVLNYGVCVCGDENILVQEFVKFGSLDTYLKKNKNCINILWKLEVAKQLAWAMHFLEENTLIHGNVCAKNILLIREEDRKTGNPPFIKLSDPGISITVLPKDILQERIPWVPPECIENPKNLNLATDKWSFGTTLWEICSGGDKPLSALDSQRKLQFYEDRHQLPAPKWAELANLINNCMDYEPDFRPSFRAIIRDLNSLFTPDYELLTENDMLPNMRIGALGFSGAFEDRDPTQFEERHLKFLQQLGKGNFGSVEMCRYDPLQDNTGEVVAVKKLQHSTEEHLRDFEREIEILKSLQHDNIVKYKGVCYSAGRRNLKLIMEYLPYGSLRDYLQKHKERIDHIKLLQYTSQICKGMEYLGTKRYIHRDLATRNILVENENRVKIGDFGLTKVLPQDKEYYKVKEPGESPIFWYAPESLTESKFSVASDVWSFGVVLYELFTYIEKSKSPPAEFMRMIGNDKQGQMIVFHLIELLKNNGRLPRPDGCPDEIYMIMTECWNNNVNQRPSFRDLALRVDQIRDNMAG

IC50 (ALK; ALK Kinase Inhibition) [nM] | IC50 (JAK2; JAK2 Kinase Inhibition) [nM] | IC50 (ALK; [1]) [nM] | IC50 (JAK2; [2]) [nM] | SMILES
< 100 | 100 to 1000 | – | – | COc1cc(N2CCN(C[C@H](C)O)CC2)c(F)cc1Nc1ncc2ccc(-c3ccccc3N(C)S(C)(=O)=O)n2n1 [Example 1479, N-[2-(2-{5-Fluoro-4-[4-((S)-2-hydroxy-propyl)-piperazin-1-yl]-2-methoxy-phenylamino}-pyrrolo[2,1-f][1,2,4]triazin-7-yl)-phenyl]-N-methyl-methanesulfonamide]
> 10000 | < 100 | – | – | COc1ccc(-c2ccc3cnc(Nc4ccc(C(=O)N5CCOCC5)cc4)nn23)cn1 [Example 1406, {4-[7-(6-Methoxy-pyridin-3-yl)-pyrrolo[2,1-f][1,2,4]triazin-2-ylamino]-phenyl}-morpholin-4-yl-methanone]
– | – | 100 to 1000 | < 100 | CN(c1ccccc1-c1ccc2cnc(Nc3ccc4c(cnn4C)c3)nn12)S(C)(=O)=O [Example 1339, N-Methyl-N-{2-[2-(1-methyl-1H-indazol-5-ylamino)-pyrrolo[2,1-f][1,2,4]triazin-7-yl]-phenyl}-methanesulfonamide]
– | – | < 100 | 100 to 1000 | COc1cc(C2CCN(CC(=O)N3CCNCC3)CC2)ccc1Nc1ncc2ccc(-c3ccccc3OC)n2n1 [Example 1276, 2-(4-{3-Methoxy-4-[7-(2-methoxy-phenyl)-pyrrolo[2,1-f][1,2,4]triazin-2-ylamino]-phenyl}-piperidin-1-yl)-1-piperazin-1-yl-ethanone]
– | – | 100 to 1000 | < 100 | CN(c1ccccc1-c1ccc2cnc(Nc3ccc4nc(CO)[nH]c4c3)nn12)S(C)(=O)=O [Example 1071, N-{2-[2-(2-Hydroxymethyl-3H-benzoimidazol-5-ylamino)-pyrrolo[2,1-f][1,2,4]triazin-7-yl]-phenyl}-N-methyl-methanesulfonamide]

Second part, the compound before the results:

SMILES | IC50 (ALK; ALK Kinase Inhibition) [nM] | IC50 (JAK2; JAK2 Kinase Inhibition) [nM] | IC50 (ALK; [1]) [nM] | IC50 (JAK2; [2]) [nM]
CS(=O)(=O)c1ccc(-c2ccc3cnc(Nc4ccc(N5CCOCC5)c(F)c4)nn23)cc1 [Example 189, (3-Fluoro-4-morpholin-4-yl-phenyl)-[7-(4-methanesulfonyl-phenyl)-pyrrolo[2,1-f][1,2,4]triazin-2-yl]-amine] | > 10000 | < 100 | – | –
COc1ccc(Cl)cc1-c1ccc2cnc(Nc3ccc(N4CCN(C)CC4)cc3)nn12 [Example 17, [7-(5-Chloro-2-methoxy-phenyl)-pyrrolo[2,1-f][1,2,4]triazin-2-yl]-[4-(4-methyl-piperazin-1-yl)-phenyl]-amine] | < 100 | < 100 | – | –
COc1cc(N2CCN(C[C@H](C)O)CC2)ccc1Nc1ncc2ccc(-c3ccccc3[S+](C)[O-])n2n1 (stereo partly drawn) [Example 545, (S)-1-(4-{4-[7-(2-Methanesulfinyl-phenyl)-pyrrolo[2,1-f][1,2,4]triazin-2-ylamino]-3-methoxy-phenyl}-piperazin-1-yl)-propan-2-ol] | – | – | 100 to 1000 | 100 to 1000
Clc1cccc(-c2ccc3cnc(Nc4ccc(N5CCOCC5)nc4)nn23)c1 [Example 79, [7-(3-Chloro-phenyl)-pyrrolo[2,1-f][1,2,4]triazin-2-yl]-(6-morpholin-4-yl-pyridin-3-yl)-amine] | > 10000 | < 100 | – | –
O=S1(=O)CCN(Cc2ccc(Nc3ncc4ccc(-c5cccnc5)n4n3)cc2)CC1 [Example 1050, [4-(1,1-Dioxo-1$1(6)-thiomorpholin-4-ylmethyl)-phenyl]-(7-pyridin-3-yl-pyrrolo[2,1-f][1,2,4]triazin-2-yl)-amine] | – | – | 1000 to 10000 | < 100
Cn1cc(-c2ccc3cnc(Nc4cccc(-n5cccn5)c4)nn23)cn1 [Example 964, [7-(1-Methyl-1H-pyrazol-4-yl)pyrrolo[2,1f][1,2,4]triazin-2-yl]-(3-pyrazol-1-yl-phenyl)-amine] | – | – | 1000 to 10000 | < 100
COc1cc(N2CCC(N3CCN(C)CC3)CC2)ccc1Nc1ncc2cc3ccccc3n2n1 [Example 262, {2-Methoxy-4-[4-(4-methyl-piperazin-1-yl)-piperidin-1-yl]-phenyl}-[1,2,4]triazino[1,6-a]indol-2-yl-amine] | 100 to 1000 | 1000 to 10000 | – | –
